Activity calls are given as the source filed them. No cut-off for these calls is given here.
Experiments:
Rattus norvegicus [1] = assay: Antihyperlipidemic activity in Sprague-Dawley rat assessed as decrease in plasma triglyceride level at […], po administered QD for 8 days relative to vehicle-treated control; format: functional, organism-based
Rattus norvegicus [2] = assay: Drug metabolism in Sprague-Dawley rat assessed as fenofibric acid level in plasma at 100 mg/kg, po after 4 hrs; format: ADME, organism-based; set-up: dose 100 mg/kg, route oral; settings: in vivo
Rattus norvegicus [3] = assay: Toxicity in Sprague-Dawley rat assessed as body weight loss at […], po relative to vehicle-treated control; format: organism-based; settings: in vivo
Rattus norvegicus [4] = assay: Toxicity in Sprague-Dawley rat assessed as aberrant behaviour at […], po relative to vehicle-treated control; format: organism-based; settings: in vivo
[5] = Aqueous solubility of the compound; format: physicochemical; settings: water
Rattus norvegicus [6] = assay: Drug metabolism in Sprague-Dawley rat assessed as fenofibric acid level in plasma at 150 mg/kg, po after 4 hrs; format: ADME, organism-based; set-up: dose 150 mg/kg, route oral; settings: in vivo

| Drug metabolism (Rattus norvegicus [2]) | solubility [5] [µg/mL] | Drug metabolism (Rattus norvegicus [6]) | SMILES | Activity (Rattus norvegicus [1]) | Activity (Rattus norvegicus [3]) | Activity (Rattus norvegicus [4]) |
| --- | --- | --- | --- | --- | --- | --- |
| – | > 1000 | – | CC(C)(Oc1ccc(CCNC(=O)c2ccc(Cl)cc2)cc1)C(=O)OC(COC(CO)CO)COC(CO)CO | – | – | – |
| – | > 1000 | Active | CC(C)(Oc1ccc(C(=O)c2ccc(Cl)cc2)cc1)C(=O)OC(COC(CO)CO)COC(CO)CO | Active | Non-toxic | Non-toxic |
| – | > 1000 | – | CC(C)(Oc1ccc(Cl)cc1)C(=O)OC(COC(CO)CO)COC(CO)CO | – | – | – |

Continued, molecule first:

| SMILES | Drug metabolism (Rattus norvegicus [2]) | solubility [5] [µg/mL] | Drug metabolism (Rattus norvegicus [6]) | Activity (Rattus norvegicus [1]) | Activity (Rattus norvegicus [3]) | Activity (Rattus norvegicus [4]) |
| --- | --- | --- | --- | --- | --- | --- |
| CC(C)OC(=O)C(C)(C)Oc1ccc(C(=O)c2ccc(Cl)cc2)cc1 [FENOFIBRATE] | Active | – | – | Active | – | – |
| CC(C)(Oc1ccc(C(=O)c2ccc(Cl)cc2)cc1)C(=O)OCCO | – | – | – | Active | Non-toxic | Non-toxic |
| CC(C)(Oc1ccc(C(=O)c2ccc(Cl)cc2)cc1)C(=O)OC(CO)CO | – | – | – | Active | Non-toxic | Non-toxic |

— ChEMBL document CHEMBL2150977, “Synthesis of highly water-soluble fibrate derivatives via BGLation” (Bioorg Med Chem Lett, 2012)
